# Numbered stars: 1 amine (or outer) side, 2 acyl side, 3 side chain; on linkers, the order of the positions; unused ones are H or OH. Bridge positions count the residues as written; N and C are the ends. Square brackets hold non-standard residues; d marks the D form. Peptide text beside a SMILES is read from it. * marks the point of attachment. hPhe(3-Cl-4-CF3) = N[C@@H](CCc1ccc(C(F)(F)F)c(Cl)c1)C(=O)O; hPhe(3-F,4-CF3) = N[C@@H](CCc1ccc(C(F)(F)F)c(F)c1)C(=O)O; NEtPhe(4-CF3) = CCN[C@@H](Cc1ccc(C(F)(F)F)cc1)C(=O)O; hPhe(4-CF3) = N[C@@H](CCc1ccc(C(F)(F)F)cc1)C(=O)O; NMePhe(4-Cl) = CN[C@@H](Cc1ccc(Cl)cc1)C(=O)O; NMePhe(4-Me) = CN[C@@H](Cc1ccc(C)cc1)C(=O)O; NMedβ3hAla = C[C@H](CC(=O)[*:2])N(C)[*:1]; NMeGly(cPent) = CN[C@H](C(=O)O)C1CCCC1; dβ3hPip = O=C(C[C@H]1CCCCN1[*:1])[*:2]; NMeGly(cBu) = CN[C@H](C(=O)O)C1CCC1; X127 = COC/C=C/CN(CC(=O)[*:2])[*:1]; NMeCha = CN[C@@H](CC1CCCCC1)C(=O)O; cisHyp = O=C(O)[C@@H]1C[C@H](O)CN1; Hyp = O=C(O)[C@@H]1C[C@@H](O)CN1; NEtLeu = CCN[C@@H](CC(C)C)C(=O)O; NMeChg = CN[C@H](C(=O)O)C1CCCCC1; NMeI = CC[C@H](C)[C@H](NC)C(=O)O; X58 = CNCCOCCN(CC(=O)[*:2])[*:1]; NMeE = CN[C@@H](CCC(=O)O)C(=O)O; NMeD = CN[C@@H](CC(=O)O)C(=O)O; dNMeD = CN[C@H](CC(=O)O)C(=O)O; NMeL = CN[C@@H](CC(C)C)C(=O)O; NMeV = CN[C@H](C(=O)O)C(C)C; d(β3hA) = C[C@@H](N)CC(=O)O; NMeS = CN[C@@H](CO)C(=O)O; NPhGly = O=C(O)CNc1ccccc1; dPip = O=C(O)[C@H]1CCCCN1; Morpholide = C1CN(*)CCO1; NMeA = CN[C@@H](C)C(=O)O; NMeAib = CNC(C)(C)C(=O)O; Piperidide = C1CCN(*)CC1; Pyrrolidide = C1CCN(*)C1; dNMeA = CN[C@H](C)C(=O)O; Ac5c = NC1(C(=O)O)CCCC1; Aze = O=C(O)[C@@H]1CCN1; Ac4c = NC1(C(=O)O)CCC1; X9 = c1cncc(C*)c1; Sar = CNCC(=O)O; Propyl = CCC*
# Biological target: protein-protein interaction between Kras and SOS1 (biotin-tagged human Kras loaded with GDP, His-tagged human SOS1) (Homo sapiens (Human), UniProt P01116, G12D)
# Experiment: Protein-protein interaction inhibition between Kras and SOS1 (KrasG12D-SOS PPI) using AlphaScreen;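 note: kras produced in E. coli, Ni-coupled donor beads and streptavidin acceptor beads, excitation 680 nm with emission detected at 520–620 nm via singlet oxygen transfer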
# Type: biochemical
# Details: not given
row,Structure (SMILES),IC50
1,CC[C@H](C)[C@@H]1NC(=O)[C@H](CC(C)C)N(C)C(=O)C[C@@H](C(=O)N(C)C)N(C)C(=O)[C@H](C2CCCC2)N(C)C(=O)C2(CCCC2)NC(=O)[C@H](CC(=O)N2CCCC2)N(C)C(=O)[C@H](CCc2ccc(C(F)(F)F)c(Cl)c2)NC(=O)CN(C)C(=O)[C@H](CC2CCCCC2)N(C)C(=O)[C@@H]2CCN2C(=O)[C@H](C)N(C)C1=O [Compound 2097] ([NMeL]I[NMeA][Aze][NMeCha][Sar][hPhe(3-Cl-4-CF3)][NMeD](Pyrrolidide)[Ac5c][NMeGly(cPent)][NMeD]-NMe2; lactam N-11),0.57 nM

# Same assay, conditions: AlphaScreen; biotin-tagged human Kras loaded with GDP, His-tagged human SOS1; read-out: KRAS G12D-SOS PPI IC50
row,Structure (SMILES),IC50
1,CCO[C@@H]1C[C@H]2C(=O)NC3(CCC3)C(=O)N(C)[C@@H](C3CCCCC3)C(=O)N(C)[C@H](C)CC(=O)N(C)[C@@H](CC(C)C)C(=O)N[C@@H]([C@@H](C)CC)C(=O)N(C)[C@@H](C)C(=O)N3CC[C@H]3C(=O)N(CC)[C@@H](Cc3ccc(C(F)(F)F)cc3)C(=O)N(C)CC(=O)N[C@@H](CCc3ccc(C(F)(F)F)c(Cl)c3)C(=O)N2C1 [Compound 296] (cyclo([Ac4c][NMeChg][NMedβ3hAla][NMeL]I[NMeA][Aze][NEtPhe(4-CF3)][Sar][hPhe(3-Cl-4-CF3)][Hyp](Et))),55 nM
2,CC[C@H](C)[C@@H]1NC(=O)[C@H](C)N(C)C(=O)C[C@@H](C)N(C)C(=O)[C@H](C2CCC2)N(C)C(=O)C(C)(C)N(C)C(=O)CN(c2ccccc2)C(=O)[C@H](CCc2ccc(C(F)(F)F)c(Cl)c2)NC(=O)CN(C)C(=O)[C@H](C2CCC2)N(C)C(=O)[C@@H]2CCN2C(=O)[C@H](C)N(C)C1=O [Compound 2148] (cyclo([Aze][NMeGly(cBu)][Sar][hPhe(3-Cl-4-CF3)][NPhGly][NMeAib][NMeGly(cBu)][NMedβ3hAla][NMeA]I[NMeA])),63 nM
3,CC[C@H](C)[C@@H]1NC(=O)[C@H](C)N(C)C(=O)C[C@@H](C(=O)N2CCCCC2)N(C)C(=O)[C@H](C(C)C)N(C)C(=O)C2(CCCC2)NC(=O)[C@@H]2CCCN2C(=O)[C@H](CCc2ccc(C(F)(F)F)c(Cl)c2)NC(=O)[C@H]2CCCCN2C(=O)[C@H](CC2CCCCC2)N(C)C(=O)CN(C)C(=O)CN(C)C1=O [Compound 1118] ([NMeA]I[Sar][Sar][NMeCha][dPip][hPhe(3-Cl-4-CF3)]P[Ac5c][NMeV][NMeD]-Piperidide; lactam N-11),200 nM
4,CCCOC[C@H]1C(=O)N2CC[C@H]2C(=O)N(C)[C@@H](CC2CCCCC2)C(=O)N(C)CC(=O)N[C@@H](CCc2ccc(C(F)(F)F)c(Cl)c2)C(=O)N2CCC[C@H]2C(=O)NC2(CCCC2)C(=O)N(C)[C@@H](C(C)C)C(=O)N[C@H](C)CC(=O)N(C)[C@@H](CC(C)C)C(=O)N[C@@H]([C@@H](C)CC)C(=O)N1C [Compound 852] (cyclo([Ac5c][NMeV][d(β3hA)][NMeL]I[NMeS](Propyl)[Aze][NMeCha][Sar][hPhe(3-Cl-4-CF3)]P)),190 nM
5,"CC[C@H](C)[C@@H]1NC(=O)[C@H](CC(C)C)N(C)C(=O)C[C@@H](C(=O)N2CCCCC2)N(C)C(=O)[C@H]([C@@H](C)CC)N(C)C(=O)C2(CCCC2)NC(=O)[C@@H]2CCCN2C(=O)[C@H](CCc2ccc(C(F)(F)F)c(F)c2)NC(=O)CN(C)C(=O)[C@H](C2CCCC2)N(C)C(=O)[C@@H]2CCN2C(=O)[C@H](C)N(C)C1=O [Compound 674] ([NMeL]I[NMeA][Aze][NMeGly(cPent)][Sar][hPhe(3-F,4-CF3)]P[Ac5c][NMeI][NMeD]-Piperidide; lactam N-11)",5.6 nM
6,CC[C@H](C)[C@@H]1NC(=O)[C@H](C(C)C)N(C)C(=O)C[C@H]2CCCCN2C(=O)[C@H](CC(C)C)N(C)C(=O)C2(CCCC2)NC(=O)[C@H](CC(C)C)N(C)C(=O)[C@H](CCc2ccc(C(F)(F)F)cc2)NC(=O)CN(C)C(=O)[C@H](Cc2ccc(Cl)cc2)N(C)C(=O)CN(C)C(=O)CN(C)C1=O [Compound 189] (cyclo([Ac5c][NMeL][dβ3hPip][NMeV]I[Sar][Sar][NMePhe(4-Cl)][Sar][hPhe(4-CF3)][NMeL])),110 nM
7,"CC[C@H](C)[C@@H]1NC(=O)[C@H](CC(C)C)N(C)C(=O)C[C@@H](C(=O)N2CCCCC2)N(C)C(=O)[C@H](C2CCCCC2)N(C)C(=O)C2(CCCC2)NC(=O)CN(C/C=C/COC)C(=O)[C@H](CCc2ccc(C(F)(F)F)c(Cl)c2)NC(=O)CN(C)C(=O)[C@H](CC2CCCCC2)N(C)C(=O)CN(C)C(=O)CN(C)C1=O [Compound 2051, (11S,17S,26S,29S,33S,36S)-11-[2-[3-chloro-4-(trifluoromethyl)phenyl]ethyl]-36-cyclohexyl-17-(cyclohexylmethyl)-29-isobutyl-9-[(E)-4-methoxybut-2-enyl]-15,18,21,24,30,34,37-heptamethyl-26-[(1S)-1-methylpropyl]-33-(piperidine-1-carbonyl)-6,9,12,15,18,21,24,27,30,34,37-undecazaspiro[4.33]octatriacontane-7,10,13,16,19,22,25,28,31,35,38-undecone] ([NMeL]I[Sar][Sar][NMeCha][Sar][hPhe(3-Cl-4-CF3)][X127][Ac5c][NMeChg][NMeD]-Piperidide; lactam N-11)",2.5 nM
8,CC[C@H](C)[C@@H]1NC(=O)[C@H](C)N(C)C(=O)C[C@@H](C)NC(=O)[C@H](C2CCCC2)N(C)C(=O)C2(CCCC2)NC(=O)[C@@H]2CCCN2C(=O)[C@H](CCc2ccc(C(F)(F)F)c(Cl)c2)NC(=O)CN(C)C(=O)[C@H](Cc2ccc(C)cc2)N(C)C(=O)[C@@H]2CCN2C(=O)[C@H](C)N(C)C1=O [Compound 1514] (cyclo([Ac5c][NMeGly(cPent)][d(β3hA)][NMeA]I[NMeA][Aze][NMePhe(4-Me)][Sar][hPhe(3-Cl-4-CF3)]P)),1 nM
9,CC[C@H](C)[C@@H]1NC(=O)[C@H](CC(C)C)N(C)C(=O)C[C@H](C(=O)N2CCCC2)N(C)C(=O)[C@H](C2CCCC2)N(C)C(=O)C2(CCCC2)NC(=O)[C@@H]2CCCN2C(=O)[C@H](CCc2ccc(C(F)(F)F)c(Cl)c2)NC(=O)CN(C)C(=O)[C@H](CC2CCCCC2)N(C)C(=O)[C@@H]2CCN2C(=O)[C@H](C)N(C)C1=O [Compound 1868] ([NMeL]I[NMeA][Aze][NMeCha][Sar][hPhe(3-Cl-4-CF3)]P[Ac5c][NMeGly(cPent)][dNMeD]-Pyrrolidide; lactam N-11),100 nM
10,"CC[C@H](C)[C@@H]1NC(=O)[C@H](CC(C)C)N(C)C(=O)C[C@@H](C(=O)N(C)C)N(C)C(=O)[C@H](C2CCCC2)N(C)C(=O)C2(CCCC2)NC(=O)CN(CCOCCNC)C(=O)[C@H](CCc2ccc(C(F)(F)F)c(Cl)c2)NC(=O)CN(C)C(=O)[C@H](CC2CCCCC2)N(C)C(=O)[C@@H]2CCN2C(=O)[C@H](C)N(C)C1=O [Compound 2183, (3S,6S,9S,13S,16S,25S,31S,34S)-25-[2-[3-chloro-4-(trifluoromethyl)phenyl]ethyl]-31-(cyclohexylmethyl)-16-cyclopentyl-9-isobutyl-N,N,3,4,10,14,17,29,32-nonamethyl-23-[2-[2-(methylamino)ethoxy]ethyl]-6-[(1S)-1-methylpropyl]-2,5,8,11,15,18,21,24,27,30,33-undecaoxo-spiro[1,4,7,10,14,17,20,23,26,29,32-undecazabicyclo[32.2.0]hexatriacontane-19,1′-cyclopentane]-13-carboxamide] ([NMeL]I[NMeA][Aze][NMeCha][Sar][hPhe(3-Cl-4-CF3)][X58][Ac5c][NMeGly(cPent)][NMeD]-NMe2; lactam N-11)",1.9 nM
11,CC[C@H](C)[C@@H]1NC(=O)[C@H](C)N(C)C(=O)C[C@@H](C)NC(=O)[C@H](C(C)C)N(C)C(=O)C2(CCCC2)NC(=O)[C@@H]2CCCN2C(=O)[C@H](CCc2ccc(C(F)(F)F)c(Cl)c2)NC(=O)[C@@H](C)N(C)C(=O)[C@H](CC2CCCCC2)N(C)C(=O)[C@@H]2CCN2C(=O)[C@@H]2CCN2C1=O [Compound 2013] (cyclo([Ac5c][NMeV][d(β3hA)][NMeA]I[Aze][Aze][NMeCha][dNMeA][hPhe(3-Cl-4-CF3)]P)),150 nM
12,CC[C@H](C)[C@@H]1NC(=O)[C@H](CC(C)C)N(C)C(=O)C[C@@H](C(=O)N2CCOCC2)N(C)C(=O)[C@H](C2CCCC2)N(C)C(=O)C2(CCCC2)NC(=O)[C@H](CCC(=O)N2CCOCC2)N(C)C(=O)[C@H](CCc2ccc(C(F)(F)F)c(Cl)c2)NC(=O)CN(C)C(=O)[C@H](CC2CCCCC2)N(C)C(=O)[C@@H]2CCN2C(=O)[C@H](C)N(C)C1=O [Compound 2107] ([NMeL]I[NMeA][Aze][NMeCha][Sar][hPhe(3-Cl-4-CF3)][NMeE](Morpholide)[Ac5c][NMeGly(cPent)][NMeD]-Morpholide; lactam N-11),4.8 nM
13,CC[C@H](C)[C@@H]1NC(=O)[C@H](CC(C)C)N(CC)C(=O)C[C@@H](C(=O)N2CCCCC2)N(C)C(=O)[C@H](C(C)C)N(C)C(=O)C2(CCCC2)NC(=O)[C@@H]2CCCN2C(=O)[C@H](CCc2ccc(C(F)(F)F)c(Cl)c2)NC(=O)CN(C)C(=O)[C@H](CC2CCCCC2)N(C)C(=O)[C@@H]2CCN2C(=O)[C@H](C)N(C)C1=O [Compound 667] ([NEtLeu]I[NMeA][Aze][NMeCha][Sar][hPhe(3-Cl-4-CF3)]P[Ac5c][NMeV][NMeD]-Piperidide; lactam N-11),5.1 nM
14,CC[C@H](C)[C@@H]1NC(=O)[C@H](C)N(C)C(=O)C[C@@H](C)NC(=O)[C@H](C2CCCC2)N(C)C(=O)C2(CCCC2)NC(=O)[C@@H]2CCCN2C(=O)[C@H](CCc2ccc(C(F)(F)F)c(Cl)c2)NC(=O)[C@H]2CCCN2C(=O)[C@H](Cc2ccc(C)cc2)N(C)C(=O)CN(C)C(=O)CN(C)C1=O [Compound 1525] (cyclo([Ac5c][NMeGly(cPent)][d(β3hA)][NMeA]I[Sar][Sar][NMePhe(4-Me)][dP][hPhe(3-Cl-4-CF3)]P)),100 nM
15,CC[C@H](C)[C@@H]1NC(=O)[C@H](CC(C)C)N(C)C(=O)C[C@@H](C(=O)N2CCCCC2)N(C)C(=O)[C@H](C2CCCCC2)N(C)C(=O)C2(CCCC2)NC(=O)[C@@H]2C[C@H](OCc3cccnc3)CN2C(=O)[C@H](CCc2ccc(C(F)(F)F)c(Cl)c2)NC(=O)CN(C)C(=O)[C@H](CC2CCCCC2)N(C)C(=O)CN(C)C(=O)CN(C)C1=O [Compound 2120] ([NMeL]I[Sar][Sar][NMeCha][Sar][hPhe(3-Cl-4-CF3)][cisHyp](X9)[Ac5c][NMeChg][NMeD]-Piperidide; lactam N-11),1 nM
